Calls of active or inactive are those of the source.
What was measured:
[1] = target: T1, G-protein coupled receptor 35 (Homo sapiens, UniProt Q9HC97); assay: SAR analysis of Agonists of the GPR35 Receptor using an Image-Based Assay - Set 4. [Related pubchem assays (depositor defined):AID2013, AID2026]; assay type: functional
Cannabinoid receptor 1 [2] = target: T2, Cannabinoid receptor 1 (Homo sapiens, UniProt P21554); assay: SAR analysis of agonists of the Cannabinoid Receptor 1 using an Image-Based Assay - Set 4. [Related pubchem assays (depositor defined):AID2013, AID2026]; assay type: functional
T2 sequence (P21554 whole entry): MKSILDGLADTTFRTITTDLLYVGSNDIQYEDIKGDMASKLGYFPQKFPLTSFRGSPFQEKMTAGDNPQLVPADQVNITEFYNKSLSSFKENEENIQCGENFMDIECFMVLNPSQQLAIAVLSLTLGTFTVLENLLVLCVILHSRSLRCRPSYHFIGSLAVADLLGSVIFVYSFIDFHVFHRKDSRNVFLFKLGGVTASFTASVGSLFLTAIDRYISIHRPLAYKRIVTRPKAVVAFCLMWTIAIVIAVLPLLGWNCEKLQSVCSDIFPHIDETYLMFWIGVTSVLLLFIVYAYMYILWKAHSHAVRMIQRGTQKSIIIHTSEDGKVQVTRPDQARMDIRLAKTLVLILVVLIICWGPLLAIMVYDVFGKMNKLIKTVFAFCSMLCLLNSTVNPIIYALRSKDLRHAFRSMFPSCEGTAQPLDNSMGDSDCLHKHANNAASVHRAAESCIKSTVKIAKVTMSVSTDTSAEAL

[3] = target: T1, G-protein coupled receptor 35; assay: SAR analysis of Antagonists of the GPR35 Receptor using an Image-Based Assay - Set 6. [Related pubchem assays (depositor defined):AID2013, AID2026]; assay type: functional
Cannabinoid receptor 1 [4] = target: T2, Cannabinoid receptor 1; assay: SAR analysis of antagonists of the Cannabinoid Receptor 1 using an Image-Based Assay - Set 4. [Related pubchem assays (depositor defined):AID2013, AID2026]; assay type: functional
[5] = target: T3, G-protein coupled receptor 55 (Homo sapiens, UniProt Q9Y2T6); assay: SAR Analysis of Selective Antagonists of GPR55 using an Image-Based Assay - Set 4. [Related pubchem assays (depositor defined):AID2013, AID2026]; assay type: functional
T3 sequence (Q9Y2T6 whole entry): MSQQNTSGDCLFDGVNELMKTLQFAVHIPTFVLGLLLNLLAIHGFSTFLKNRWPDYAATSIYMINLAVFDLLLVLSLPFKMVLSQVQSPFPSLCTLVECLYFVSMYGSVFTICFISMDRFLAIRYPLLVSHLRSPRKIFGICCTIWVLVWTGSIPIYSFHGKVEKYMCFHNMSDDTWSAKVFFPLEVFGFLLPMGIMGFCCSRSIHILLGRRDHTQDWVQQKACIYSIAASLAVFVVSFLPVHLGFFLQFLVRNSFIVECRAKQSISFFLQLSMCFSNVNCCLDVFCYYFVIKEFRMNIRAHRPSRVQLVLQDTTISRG

Cannabinoid receptor 2 [6] = target: T4, Cannabinoid receptor 2 (Homo sapiens, UniProt P34972); assay: SAR analysis of antagonists of the Cannabinoid Receptor 2 using an Image-Based Assay - Set 3. [Related pubchem assays (depositor defined):AID2013, AID2026]; assay type: functional
T4 sequence (P34972 whole entry): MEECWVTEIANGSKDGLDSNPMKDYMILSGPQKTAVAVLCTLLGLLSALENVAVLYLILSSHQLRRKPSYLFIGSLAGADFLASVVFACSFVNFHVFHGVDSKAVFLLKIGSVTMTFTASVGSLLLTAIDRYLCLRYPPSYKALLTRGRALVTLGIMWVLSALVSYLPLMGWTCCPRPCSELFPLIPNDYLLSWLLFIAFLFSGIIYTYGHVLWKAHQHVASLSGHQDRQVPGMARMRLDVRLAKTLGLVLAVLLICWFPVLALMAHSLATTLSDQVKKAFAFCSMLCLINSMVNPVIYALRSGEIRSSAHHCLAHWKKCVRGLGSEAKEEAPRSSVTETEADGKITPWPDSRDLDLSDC

Cannabinoid receptor 2 [7] = target: T4, Cannabinoid receptor 2; assay: SAR analysis of agonists of the Cannabinoid Receptor 2 using an Image-Based Assay - Set 3. [Related pubchem assays (depositor defined):AID2013, AID2026]; assay type: functional
[8] = Luminescence Cell-Based Dose Response HTS to Identify Inhibitors of Luciferase Translation or Activity in H4-C Neuroglioblastoma Cells. [Related pubchem assays: 1813 (Primary HTS), 1827 (Project Summary)]; assay type: functional
[9] = Luminescence Cell-Based Dose Response HTS to Identify Activators of Luciferase Translation or Activity in H4-C Neuroglioblastoma Cells. [Related pubchem assays: 1829 (Project Summary), 1814 (Primary HTS)]; assay type: functional
[10] = luciferase reporter signal suppression in cells – H4 neuroglioma cells, luminescence, dose response (AID 1990); assay type: functional, cell-based
[11] = luciferase reporter signal reduction – luminescence, H4-C neuroglioblastoma cells, dose response (AID 2458); assay type: functional, cell-based;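 note: H4 neuroglioblastoma cells stably carrying a luciferase reporter gene fusion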
[12] = Luminescence Cell-Based Dose Retest to Confirm Activators of 5'UTR Stem-Loop Driven Alpha-Synuclein mRNA Translation in H4 Neuroglioblastoma Cells. [Related pubchem assays (depositor defined):AID1813, AID1829]; assay type: functional
[13] = Luminescence Cell-Based Dose Response HTS to Identify Activators of 5'UTR Stem-Loop Driven Prion Protein mRNA Translation in H4-C Neuroglioblastoma Cells. [Related pubchem assays: 1829 (Project Summary), 1814 (Primary HTS)]; assay type: functional
[14] = Luminescence Cell-Based Dose HTS Response to Identify Inhibitors of 5'UTR Stem-Loop Driven Prion Protein mRNA Translation in H4-C Neuroglioblastoma Cells. [Related pubchem assays (depositor defined):AID1814, AID1827]; assay type: functional
BJ [15] = assay: BJ-TERT fibroblast viability loss – cell-based, RAS-independent, luminescence, dose response (AID 1933); assay type: functional; conditions: Homo sapiens
cells [16] = assay type: functional, cell-based
[17] = Luminescence Cell-Based Dose Response HTS to Identify Inhibitors of 5'UTR Stem-Loop Driven Prion Protein mRNA Translation in H4 Neuroglioblastoma Cells. [Related pubchem assays: 1827 (Project Summary), 1813 (Primary HTS)]; assay type: functional
[18] = alpha-synuclein stem-loop luciferase translation blockers – H4 neuroglioma cells, luminescence, confirmation (AID 1988); assay type: functional, cell-based
BJ [19] = assay: cells; assay type: functional, cell-based; conditions: Homo sapiens
[20] = Luminescence Cell-Based Dose Confirmation HTS to Identify Inhibitors of 5'UTR Stem-Loop Driven Alpha-Synuclein mRNA Translation in H4 Neuroglioblastoma Cells. [Related pubchem assays: 1827 (Project Summary), 1813 (Primary HTS)]; assay type: functional
BJ [21] = assay: BJ-TERT-LT-ST fibroblast viability loss – cell-based, RAS-independent, luminescence, dose response (AID 1935); assay type: functional; conditions: Homo sapiens;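 note: BJ fibroblasts immortalized with TERT plus LT and ST oncogenes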
[22] = DRD fibroblast viability loss – cell-based, non-viral oncogenic, luminescence, dose response (AID 1934); assay type: functional; conditions: Homo sapiens
[23] = alpha-synuclein stem-loop translation blockers – luminescence, H4 neuroglioblastoma cells, dose confirmation, confirmation (AID 2454); assay type: functional, cell-based;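 note: H4 neuroglioblastoma cells carrying an alpha-synuclein 5'UTR luciferase reporter; potency for inhibition of the luciferase signal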
BJ [24] = assay: growth inhibition of engineered Ras-driven BJ cells – cell-based, alamar blue fluorescence, cherrypicked samples, dose response (AID 2631); assay type: functional; conditions: Homo sapiens;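 note: confirmatory dose-response assay in RAS-dependent BJ fibroblasts engineered with TERT, LT and ST, with cytotoxicity read by fluorescence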
[25] = toxicity toward HEK293 cells – cell-based, dry powder samples, cytotoxicity control, dose response (AID 720567); assay type: functional
[26] = target: DNA damage-inducible transcript 3 protein (Mus musculus, UniProt P35639); assay type: functional, Cricetulus griseus
Chain of DNA damage-inducible transcript 3 protein (P35639 whole entry): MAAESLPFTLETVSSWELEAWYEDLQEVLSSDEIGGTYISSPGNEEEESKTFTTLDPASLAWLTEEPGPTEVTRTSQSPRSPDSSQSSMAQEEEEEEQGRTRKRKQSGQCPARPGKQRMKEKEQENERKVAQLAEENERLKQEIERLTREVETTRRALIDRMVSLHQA

X-box-binding protein 1 = target: T5, X-box-binding protein 1 (Homo sapiens, UniProt P17861); assay type: functional, Cricetulus griseus;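 note: confirmatory dose-response counter-screen serving a CHOP assay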
T5 sequence (P17861 whole entry): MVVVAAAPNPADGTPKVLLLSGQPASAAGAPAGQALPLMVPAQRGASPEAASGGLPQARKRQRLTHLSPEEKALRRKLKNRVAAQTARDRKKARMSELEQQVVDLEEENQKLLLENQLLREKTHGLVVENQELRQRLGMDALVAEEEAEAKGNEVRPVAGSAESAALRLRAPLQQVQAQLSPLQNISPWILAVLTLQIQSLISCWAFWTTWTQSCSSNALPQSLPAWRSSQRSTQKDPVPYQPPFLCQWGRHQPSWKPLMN

[27] = target: T6, Kappa-type opioid receptor (Homo sapiens, UniProt P41145); assay type: functional
T6 sequence (P41145 whole entry): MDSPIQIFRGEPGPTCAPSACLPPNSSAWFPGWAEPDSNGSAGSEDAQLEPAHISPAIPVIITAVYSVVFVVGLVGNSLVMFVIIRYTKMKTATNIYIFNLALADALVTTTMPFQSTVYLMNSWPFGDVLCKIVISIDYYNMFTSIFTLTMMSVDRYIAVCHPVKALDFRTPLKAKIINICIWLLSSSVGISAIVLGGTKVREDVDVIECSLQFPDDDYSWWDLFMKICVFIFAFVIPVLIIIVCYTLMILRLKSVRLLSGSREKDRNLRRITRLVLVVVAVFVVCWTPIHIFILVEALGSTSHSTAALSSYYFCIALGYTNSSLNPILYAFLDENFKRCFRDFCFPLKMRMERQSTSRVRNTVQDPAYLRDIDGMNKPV

Beta-galactosidase = Beta-galactosidase (Escherichia coli, UniProt Q8VNN2); assay type: functional
Chain of Beta-galactosidase (Q8VNN2 whole entry): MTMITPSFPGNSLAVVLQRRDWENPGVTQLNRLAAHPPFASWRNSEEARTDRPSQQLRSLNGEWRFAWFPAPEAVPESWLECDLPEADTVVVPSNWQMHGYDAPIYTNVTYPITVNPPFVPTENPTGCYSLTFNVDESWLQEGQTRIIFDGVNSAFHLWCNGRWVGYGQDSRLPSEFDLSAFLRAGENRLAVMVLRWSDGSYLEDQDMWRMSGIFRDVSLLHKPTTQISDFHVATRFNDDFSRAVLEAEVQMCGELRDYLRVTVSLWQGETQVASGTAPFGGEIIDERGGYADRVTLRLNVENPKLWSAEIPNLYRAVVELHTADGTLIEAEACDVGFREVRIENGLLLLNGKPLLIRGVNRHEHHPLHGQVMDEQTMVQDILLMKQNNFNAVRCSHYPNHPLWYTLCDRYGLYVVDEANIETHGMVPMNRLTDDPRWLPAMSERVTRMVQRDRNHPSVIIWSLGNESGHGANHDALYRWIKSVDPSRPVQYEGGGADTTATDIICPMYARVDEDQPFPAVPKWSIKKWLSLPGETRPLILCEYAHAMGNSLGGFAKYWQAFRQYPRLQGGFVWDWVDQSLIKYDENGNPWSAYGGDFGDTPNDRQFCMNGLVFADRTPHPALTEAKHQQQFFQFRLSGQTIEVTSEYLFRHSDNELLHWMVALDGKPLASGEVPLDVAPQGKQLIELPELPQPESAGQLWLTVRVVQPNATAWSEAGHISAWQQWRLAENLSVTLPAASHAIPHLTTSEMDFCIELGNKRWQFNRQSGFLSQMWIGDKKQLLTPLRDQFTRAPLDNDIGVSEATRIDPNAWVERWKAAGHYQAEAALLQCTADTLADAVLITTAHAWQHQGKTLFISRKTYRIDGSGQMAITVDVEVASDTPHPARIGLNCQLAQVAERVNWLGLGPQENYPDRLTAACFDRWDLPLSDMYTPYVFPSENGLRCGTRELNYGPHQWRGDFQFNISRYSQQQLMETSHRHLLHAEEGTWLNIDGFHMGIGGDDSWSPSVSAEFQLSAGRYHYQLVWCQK

[28] = target: T6, Kappa-type opioid receptor; assay type: functional; remark: listed apart in the source
[29] = THP-1 cell cytotoxicity, dose response, cytotoxicity control for non-replicating M. tuberculosis project (AID 489025); assay type: functional
[30] = HepG2 cell cytotoxicity, dose response, cytotoxicity control for non-replicating M. tuberculosis project (AID 489018); assay type: functional; conditions: Mycobacterium tuberculosis
[31] = Vero E6 cell cytotoxicity, dose response, cytotoxicity control for non-replicating M. tuberculosis project, secondary assay (AID 492998); assay type: functional, VeroE6; conditions: Vero C1008
[32] = target: T7, Heat shock factor protein 1 (Mus musculus, UniProt P38532); assay: enhancement of HSF1-driven luciferase signal – cell-based, NIH3T3, luminescence, dose retest, confirmation (AID 435004); assay type: functional;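 note: stress induced by proteasome inhibitor MG132 added 30 min after compound; luciferase reporter driven by HSF1 response element in NIH3T3 cells; actives raise luminescence as potentiators of the MG132 stress response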
T7 sequence (P38532 whole entry): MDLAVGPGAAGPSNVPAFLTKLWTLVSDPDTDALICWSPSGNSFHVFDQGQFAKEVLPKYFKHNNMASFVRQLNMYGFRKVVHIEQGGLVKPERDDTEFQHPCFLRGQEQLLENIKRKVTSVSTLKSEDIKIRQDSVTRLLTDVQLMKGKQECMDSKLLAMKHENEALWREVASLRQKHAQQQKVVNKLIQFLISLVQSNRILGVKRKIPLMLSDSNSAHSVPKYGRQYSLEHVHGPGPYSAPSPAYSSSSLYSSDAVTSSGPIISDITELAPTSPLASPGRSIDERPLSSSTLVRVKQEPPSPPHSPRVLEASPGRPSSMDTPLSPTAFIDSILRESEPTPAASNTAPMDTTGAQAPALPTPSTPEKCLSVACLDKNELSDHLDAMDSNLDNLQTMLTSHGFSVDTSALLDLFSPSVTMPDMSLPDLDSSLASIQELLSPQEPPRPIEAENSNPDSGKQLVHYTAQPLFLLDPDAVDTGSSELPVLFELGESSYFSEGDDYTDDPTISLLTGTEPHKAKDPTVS

cells [33] = assay type: functional
CHO = CHO cell viability loss, potency – luminescence, cytotoxicity control for TLR9-MyD88 binding inhibitor project, dose response (AID 588339); assay type: functional, cell-based, hamster; conditions: Cricetulus griseus;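 note: CHO cells stably coexpressing TLR9 and MyD88 fusions from primary screen; compound exposure lasted 48 hours before viability readout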
Beta Lactamase = Beta Lactamase (Pseudomonas aeruginosa, UniProt Q932Y6); assay: BLA reporter interference, concentration series – BLA reporter cells, FRET fluorescence, artefact control for TLR9-MyD88 binding inhibitor project, dose response (AID 588341); assay type: cell-based;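 note: cell based assay in CHO-K1 cells stably expressing beta-lactamase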
Chain of Beta Lactamase (Q932Y6 whole entry): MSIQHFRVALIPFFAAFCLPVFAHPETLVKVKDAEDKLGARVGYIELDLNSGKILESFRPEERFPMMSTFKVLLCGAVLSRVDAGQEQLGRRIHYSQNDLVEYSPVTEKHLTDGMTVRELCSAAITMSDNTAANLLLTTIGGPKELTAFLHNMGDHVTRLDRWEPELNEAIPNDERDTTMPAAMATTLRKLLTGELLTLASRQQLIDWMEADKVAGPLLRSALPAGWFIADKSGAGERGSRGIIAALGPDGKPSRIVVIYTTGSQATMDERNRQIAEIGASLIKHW

Ion channel NompC = Ion channel NompC (Danio rerio, UniProt Q7T1G6); assay: Dose response cell-based high-throughput screening assay for agonists of the transient receptor potential channel N1 (TRPN1). [Related pubchem assays (depositor defined):AID1424, AID1448]; assay type: functional
Chain of Ion channel NompC (Q7T1G6 whole entry): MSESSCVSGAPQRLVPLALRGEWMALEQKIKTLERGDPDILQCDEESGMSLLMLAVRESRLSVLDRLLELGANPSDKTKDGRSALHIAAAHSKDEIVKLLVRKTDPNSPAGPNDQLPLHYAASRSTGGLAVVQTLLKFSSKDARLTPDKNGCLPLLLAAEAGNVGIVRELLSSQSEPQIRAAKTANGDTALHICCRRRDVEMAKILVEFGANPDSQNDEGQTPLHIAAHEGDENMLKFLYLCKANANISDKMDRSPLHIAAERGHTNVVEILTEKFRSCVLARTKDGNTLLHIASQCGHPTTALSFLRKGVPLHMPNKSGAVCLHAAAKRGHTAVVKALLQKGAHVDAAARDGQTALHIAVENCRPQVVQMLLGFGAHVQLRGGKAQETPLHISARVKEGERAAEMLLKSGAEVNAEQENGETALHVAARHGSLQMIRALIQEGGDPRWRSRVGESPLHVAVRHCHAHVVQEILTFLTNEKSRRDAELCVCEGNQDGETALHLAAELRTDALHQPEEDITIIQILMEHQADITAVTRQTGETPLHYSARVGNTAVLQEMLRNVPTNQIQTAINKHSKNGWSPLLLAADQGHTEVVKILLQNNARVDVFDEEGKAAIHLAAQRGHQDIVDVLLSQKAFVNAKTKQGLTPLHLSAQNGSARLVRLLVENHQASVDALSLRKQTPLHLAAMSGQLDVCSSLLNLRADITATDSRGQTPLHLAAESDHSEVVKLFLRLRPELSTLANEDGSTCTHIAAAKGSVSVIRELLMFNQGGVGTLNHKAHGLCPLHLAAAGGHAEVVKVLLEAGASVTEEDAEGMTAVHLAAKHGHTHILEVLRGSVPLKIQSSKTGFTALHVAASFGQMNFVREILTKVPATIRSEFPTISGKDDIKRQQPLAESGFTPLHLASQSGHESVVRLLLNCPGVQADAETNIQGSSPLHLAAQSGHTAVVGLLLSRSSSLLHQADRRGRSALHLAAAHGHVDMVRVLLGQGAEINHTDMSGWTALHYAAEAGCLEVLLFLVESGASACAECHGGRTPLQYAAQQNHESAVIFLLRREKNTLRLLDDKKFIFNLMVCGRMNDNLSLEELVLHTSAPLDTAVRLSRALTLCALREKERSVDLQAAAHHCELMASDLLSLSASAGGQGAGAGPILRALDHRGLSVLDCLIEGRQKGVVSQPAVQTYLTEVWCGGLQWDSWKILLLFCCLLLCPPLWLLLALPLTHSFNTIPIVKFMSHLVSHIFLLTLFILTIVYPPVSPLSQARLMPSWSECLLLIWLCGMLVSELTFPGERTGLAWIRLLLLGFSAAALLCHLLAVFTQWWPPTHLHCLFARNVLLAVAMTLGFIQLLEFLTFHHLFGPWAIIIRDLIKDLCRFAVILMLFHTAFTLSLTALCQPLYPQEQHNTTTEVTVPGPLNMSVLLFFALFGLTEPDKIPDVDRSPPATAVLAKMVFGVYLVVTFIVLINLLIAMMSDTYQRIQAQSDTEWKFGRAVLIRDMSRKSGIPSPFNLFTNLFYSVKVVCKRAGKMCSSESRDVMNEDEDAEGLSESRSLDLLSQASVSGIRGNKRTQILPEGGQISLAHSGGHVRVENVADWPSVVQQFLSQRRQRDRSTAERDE

Mucolipin-3 = Mucolipin-3 (Homo sapiens, UniProt Q8TDD5); assay: Fluorescence counterscreen assay for […] agonists: dose response cell-based high-throughput screening assay to identify agonists of the transient receptor potential channel ML3 (TRPML3). [Related pubchem assays: 1424, 1448 ]; assay type: functional
[34] = target: T3, G-protein coupled receptor 55; assay: inhibition of LPI-stimulated GPR55 beta-arrestin translocation – imaging, U2OS, beta-arrestin-GFP, LPI agonist, primary screen (AID 2013); assay type: functional;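 note: antagonist potency measured as reduced agonist-driven arrestin aggregation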
Cannabinoid receptor 2 [35] = target: T4, Cannabinoid receptor 2; assay: SAR analysis of antagonists of the Cannabinoid Receptor 2 using an Image-Based Assay - Set 2. [Related pubchem assays (depositor defined):AID1961, AID1965]; assay type: functional
[36] = target: T3, G-protein coupled receptor 55; assay: SAR analysis of selective Agonists of GPR55 using an Image-Based Assay - Set 2. [Related pubchem assays (depositor defined):AID1961, AID1965]; assay type: functional
Cannabinoid receptor 2 [37] = target: T4, Cannabinoid receptor 2; assay: SAR analysis of agonists of the Cannabinoid Receptor 2 using an Image-Based Assay - Set 2. [Related pubchem assays (depositor defined):AID1961, AID1965]; assay type: functional
[38] = target: T1, G-protein coupled receptor 35; assay: SAR analysis of Agonists of the GPR35 Receptor using an Image-Based Assay - Set 3. [Related pubchem assays (depositor defined):AID1961, AID1965]; assay type: functional
Cannabinoid receptor 1 [39] = target: T2, Cannabinoid receptor 1; assay: SAR analysis of antagonists of the Cannabinoid Receptor 1 using an Image-Based Assay - Set 3. [Related pubchem assays (depositor defined):AID1961, AID1965]; assay type: functional
Cannabinoid receptor 1 [40] = target: T2, Cannabinoid receptor 1; assay: SAR analysis of agonists of the Cannabinoid Receptor 1 using an Image-Based Assay - Set 3. [Related pubchem assays (depositor defined):AID1961, AID1965]; assay type: functional
[41] = target: T1, G-protein coupled receptor 35; assay: SAR analysis of Antagonists of the GPR35 Receptor using an Image-Based Assay - Set 4. [Related pubchem assays (depositor defined):[…]]; assay type: functional

T1 sequence (Q9HC97 whole entry): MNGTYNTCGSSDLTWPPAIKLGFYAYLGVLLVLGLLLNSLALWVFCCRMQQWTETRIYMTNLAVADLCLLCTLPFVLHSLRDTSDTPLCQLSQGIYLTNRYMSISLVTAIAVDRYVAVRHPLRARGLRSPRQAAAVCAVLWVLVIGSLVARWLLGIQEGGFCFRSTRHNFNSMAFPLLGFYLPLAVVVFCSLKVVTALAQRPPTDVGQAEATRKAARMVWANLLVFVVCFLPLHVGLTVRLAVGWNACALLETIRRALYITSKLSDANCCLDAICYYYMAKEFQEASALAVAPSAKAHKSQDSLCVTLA

COc1ccc(-c2cc(C(=O)Nc3ccc(S(=O)(=O)Nc4ncccn4)cc3)c3ccccc3n2)cc1
EC50 [1]: > 32 µM (inactive) | EC50 (Cannabinoid receptor 1 [2]): > 32 µM (inactive) | IC50 [3]: > 32 µM (inactive) | IC50 (Cannabinoid receptor 1 [4]): 24.5 µM (inactive) | IC50 [5]: > 32 µM (inactive) | IC50 (Cannabinoid receptor 2 [6]): > 32 µM (inactive) | EC50 (Cannabinoid receptor 2 [7]): > 32 µM (inactive)

COc1cccc(N2CCN(C(=O)c3ccc(C[S+]([O-])c4ccc(C)cc4)o3)CC2)c1 (stereo not given)
EC50 [8]: 0.703 µM (active) | EC50 [9]: 0.703 µM (inconclusive) | EC50 [10]: 5.76 µM (active) | EC50 [11]: 0.93 µM (active) | EC50 [12]: 36.4 µM (inconclusive) | EC50 [13]: 0.186 µM (inconclusive) | EC50 [14]: 0.186 µM (active) | EC50 (BJ [15]): 0.873 µM (active) | EC50 (cells [16]): 1.57 µM (active) | EC50 [17]: 12.6 µM (active) | EC50 [18]: < 0.1 µM (active) | EC50 (BJ [19]): 0.479 µM (inconclusive) | EC50 [20]: 36.4 µM (active) | EC50 (BJ [21]): 0.651 µM (active) | EC50 [22]: 0.637 µM (active) | EC50 [23]: 1.43 µM (active) | EC50 (BJ [24]): < 0.104 µM (active) | AC50 [25]: > 30 µM (inactive)

CCOC(=O)c1c(-c2ccccc2)oc2ccc(O)c(CN3CCOCC3)c12
Absolute IC50 (CHOP) [26]: 10 µM | Absolute IC50 (XBP1) (X-box-binding protein 1): < 10 µM

CS(=O)(=O)c1sc(C#N)c2c1C(=O)CC(c1ccccc1)C2 (stereo not given)
EC50 [10]: > 120 µM (not active) | EC50 [17]: 10.3 µM (active) | EC50 [18]: 7.83 µM (active) | IC50 [27]: 4.62 µM (active) | EC50 (Beta-galactosidase): > 31.5 µM (inactive) | IC50 [28]: 3.24 µM | CC50 [29]: 4.22 µM (active) | CC50 [30]: 4.85 µM (active) | CC50 [31]: 5.26 µM (active) | EC50 [32]: 17.8 µM (active) | IC50 (cells [33]): 0.78 µM (active) | IC50 (CHO): 2.74 µM (active) | IC50 (Beta Lactamase): 7.08 µM (active)

COC(=O)c1ccc(NC(=O)Nc2cccc(F)c2)cc1
EC50 (Ion channel NompC): > 29.9 µM (inactive) | EC50 (Mucolipin-3): > 29.9 µM (not active)

CCOC(=O)c1c(NC(=O)C2=C(C)N=C(S)NC2c2ccc(C)cc2)sc(C)c1C (stereo not given)
IC50 [34]: < 0.5 µM (active)

CCC1CCc2sc(C(=O)Nc3cc(S(=O)(=O)N4CCOCC4)ccc3OC)cc2C1 (stereo not given)
IC50 (Cannabinoid receptor 2 [35]): > 32 µM (inactive) | EC50 [36]: 0.409 µM (active) | EC50 (Cannabinoid receptor 2 [37]): > 32 µM (inactive) | EC50 [38]: > 32 µM (inactive) | IC50 (Cannabinoid receptor 1 [39]): > 32 µM (inactive) | EC50 (Cannabinoid receptor 1 [40]): > 32 µM (inactive) | IC50 [41]: > 32 µM (inactive)

From ChEMBL document CHEMBL1201862, “PubChem BioAssay data set” (2004)
